Experimental findings from PubChem BioAssay AID1508610 (The Scripps Research Institute Molecular Screening Center, 2020) are described below.

In the assay the target is G-protein coupled receptor 151 (Homo sapiens) (UniProt Q8TDV0). As to the kind of experiment: GPR151 activator potency, dose response, cell-based (AID 1508610). The conditions noted are these: cell-based GPR151 activation reporter.

The source made the active and inactive calls. The rule behind the calls is not given here.

G-protein coupled receptor 151 (Homo sapiens), sequence (Q8TDV0 whole entry, looked up): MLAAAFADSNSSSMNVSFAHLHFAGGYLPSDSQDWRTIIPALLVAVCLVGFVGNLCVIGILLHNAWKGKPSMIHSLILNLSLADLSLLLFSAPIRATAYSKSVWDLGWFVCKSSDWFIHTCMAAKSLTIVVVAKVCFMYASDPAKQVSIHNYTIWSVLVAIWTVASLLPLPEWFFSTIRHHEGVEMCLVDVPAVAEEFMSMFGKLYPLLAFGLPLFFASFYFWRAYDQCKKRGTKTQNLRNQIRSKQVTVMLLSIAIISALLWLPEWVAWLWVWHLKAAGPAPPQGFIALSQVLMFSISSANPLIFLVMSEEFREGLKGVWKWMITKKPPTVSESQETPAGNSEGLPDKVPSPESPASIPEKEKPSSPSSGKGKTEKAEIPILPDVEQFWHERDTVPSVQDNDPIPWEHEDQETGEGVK

For the compound `CC(C)c1ccc(N(CC(=O)NCCSc2ccccc2)S(C)(=O)=O)cc1`, the EC50 is > 28 µM (inactive).
`Cc1ccc(NC(=O)CN(C)S(=O)(=O)c2ccc(Br)cc2)cc1Cl`: the EC50 was > 28 µM (inactive).
For `COc1ccccc1CN[C@H]1C[C@H]2C(=O)N[C@@H](CC(C)C)C(=O)N2C1`, the EC50 was > 28 µM (inactive).
To `O=C(Nc1nc2c(s1)CCCC2)C1=COCCO1` belongs > 27.4 µM (inactive); to `COc1ccccc1OCCCN1C(=O)C(=O)c2cc(Br)cc(C)c21`, > 28 µM (inactive).
In the case of `COc1ccc(-c2ccc(C(=O)Nc3ccccc3)s2)cc1`, the EC50 was > 27.9 µM (inactive).
To `CCC(C)C1N=C2c3ccccc3N=C(SCC(=O)N3CC(C)CC(C)C3)N2C1=O` (configuration not stated) belongs > 29.4 µM (inactive).
To `COc1ccc(-c2ccc(C(=O)Nc3ccc(NC(C)=O)cc3)s2)cn1` belongs > 28.2 µM (inactive); to `CCC1CN(CCNC(=O)CC2CCCC2)Cc2cc(OC)ccc2O1` (configuration not stated), > 28 µM (inactive); to `Cn1c(N)c(S(=O)(=O)N2CCN(c3ccccc3Cl)CC2)c(=O)n(C)c1=O`, > 28.4 µM (inactive).
To `CN1CCN(c2ccc(-c3ccc(C(=O)NCCOc4ccccc4)s3)cc2)CC1` belongs > 27.7 µM (inactive); to `CCC[n+]1c(/C=C2\Sc3ccccc3N2CC)ccc2ccccc21`, > 24.5 µM (inactive).
As to `CON(C)C(=O)c1ccc(OCc2ccnc(Cl)c2)cc1`, the EC50 is > 28 µM (inactive).
Consider `CC[n+]1c(/C=C2\Sc3ccc(C)cc3N2CCO)ccc2ccccc21`, for which the EC50 entry was “inactive”.
To `CC(=O)Nc1ccc(NC(=O)c2ccc3nc(Nc4ccccn4)sc3c2)cc1` belongs > 28 µM (inactive); to `CCOC(=O)C1CCC(CN(CC(C)C)S(=O)(=O)c2ccc([N+](=O)[O-])cc2)CC1` (configuration not stated), > 23.7 µM (inactive); to `CN1CCN(C(=O)c2ccc(-c3nc4ccc(C(=O)NCCOc5ccccc5)cc4s3)cc2)CC1`, > 28.1 µM (inactive).
For `Cn1c(=O)oc2cc(S(=O)(=O)N3CCCC(C(=O)N4CCOCC4)C3)ccc21` (configuration not stated), the EC50 is > 28 µM (inactive).
To `O=C(O)c1ccc(COc2ccc3c(c2)CCC3)o1` belongs > 28 µM (inactive); to `CN(C)c1cccc2c(S(=O)(=O)Nc3nccnc3-c3ccc(C=O)cc3)cccc12`, > 28 µM (inactive).
Regarding `COc1ccc(OCc2cc(C(=O)N(C)Cc3ccncn3)no2)c(Cl)c1`, the EC50 was > 28 µM (inactive).
To `CCc1ccccc1N(CC(=O)Nc1ccccc1Cl)S(C)(=O)=O` belongs 0.00153 µM.
For `COc1cc(Nc2ccnc(Nc3ccc(N4CCOCC4)cc3)n2)cc(OC)c1OC`, the EC50 was > 28.2 µM (inactive).
For the compound `COc1ccccc1N(CC(=O)Nc1ccccc1C(=O)NCC(C)C)S(C)(=O)=O`, the EC50 was > 28 µM (inactive).
To `COc1ccc(-c2noc(-c3cc4ccc(OC)cc4oc3=O)n2)cc1` belongs > 28 µM (inactive); to `CCOC(=O)c1cc2c(c(CSc3nc4ccccc4c(=O)n3Cc3ccc4c(c3)OCO4)c1)OCOC2`, > 21.4 µM (inactive); to `O=C(Nc1nc(-c2cc3ccccc3o2)cs1)c1cc2ccccc2oc1=O`, > 24.7 µM (inactive).
To `CCN=C1SC(CC(=O)Nc2sc(C)c(C)c2C(=O)OC)C(=O)N1CC` (configuration not stated) belongs > 28.2 µM (inactive); to `COc1ccccc1C1c2c(oc3ccc(C)cc3c2=O)C(=O)N1CCN1CCOCC1` (configuration not stated), 0.00152 µM.
To `CCCOc1ccc(NC(=O)CC2C(=O)N(c3ccc(Cl)cc3)C(=S)N2Cc2ccncc2)cc1` (configuration not stated) belongs > 23.5 µM (inactive); to `O=c1oc(Nc2cccc(C(F)(F)F)c2)nc2ccccc12`, > 28.4 µM (inactive); to `COc1ccc(-c2nc(Nc3ccccc3F)c3ccccc3n2)cc1OC`, > 28.2 µM (inactive).
Take `O=C(c1ccc2c(c1)OCO2)N1CCN(c2ccc(Cl)cc2)CC1`: the EC50 was > 28 µM (inactive).
Take `COC(=O)CN1C(=O)S/C(=C\c2cc(Br)c(OC)c(OC)c2)C1=O`: the EC50 was > 28 µM (inactive).
To `CC1(C)Cc2cccc(OCC(=O)NC3=NCCS3)c2O1` belongs > 29.3 µM (inactive).
As to `Oc1ccc(Nc2ncnc3ccc(I)cc23)cc1`, the EC50 is > 28 µM (inactive).
As for `Cc1nn(-c2ccccc2)c(Cl)c1/C=N\O`, the EC50 was > 28 µM (inactive).
To `NP(=O)(Oc1ccc(Cl)cc1)Oc1ccc(Cl)cc1` belongs > 28.2 µM (inactive).
To `CC(C)=CCN1CCN(Cc2sccc2C)CC1CCO` (configuration not stated) belongs > 28 µM (inactive).
In the case of `O=C(O)c1ccc(-n2cc(-c3cnccn3)cn2)cc1`, the EC50 was > 28 µM (inactive).
To `COCCNCCOc1ccc(C)cc1C` belongs > 28 µM (inactive).
`Cc1ccc(-c2nc3ccccc3[nH]2)cc1`: the EC50 was > 35.1 µM (inactive).
To `COc1ccc(C(=O)Nc2cc(C(=O)NCc3ccc(F)cc3)ccc2N2CC3CC(C2)c2cccc(=O)n2C3)cc1` (configuration not stated) belongs > 16.9 µM (inactive); to `CCOC(=O)c1cc(S(=O)(=O)N2CCN(c3ccccc3F)CC2)cn1C`, > 28 µM (inactive).
Take `NN1C(=O)c2ccccc2NC1C1CC=CCC1` (configuration not stated): the EC50 was > 28 µM (inactive).
To `COc1ccc(C(=O)Nc2nc(C)cs2)c(OC)n1` belongs > 28 µM (inactive); to `CCCCCCCCCCCCCCCC(=O)SCCOP(=O)(O)OCC[N+](C)(C)C`, > 11.2 µM (inactive).
To `O=C(c1cccs1)N1CCN=C1SCc1cccc([N+](=O)[O-])c1` belongs > 28 µM (inactive); to `CCOc1ccccc1NC(=O)N1CCC2(CC1)OCCO2`, > 28 µM (inactive).
To `COc1ccc(OC(C)C(=O)Nc2cc(C)ccc2C)cc1` (configuration not stated) belongs > 32 µM (inactive); to `Cc1cn2c(=O)c(C(=O)NOCc3cccc(C(F)(F)F)c3)cnc2s1`, > 28 µM (inactive).
Take `O=C1N(CN2CCC3(CC2)OCCO3)c2ccccc2C12OCCCO2`: the EC50 is > 28 µM (inactive).
Take `O=C(Nc1ncc([N+](=O)[O-])s1)c1cccnc1`: the EC50 was > 31.4 µM (inactive).
For `Cc1ccc2nc(NC(=O)C3=COCCO3)sc2c1`, the EC50 is > 28.4 µM (inactive).
Take `O=C(NCc1ccc(F)cc1)c1cc(-c2ccccc2Cl)nc2ccccc12`: the EC50 was > 32.1 µM (inactive).
To `O=S(=O)(c1ccc(-c2csc(=Nc3cccc(Cl)c3)n2CCCO)cc1)N1CCCCC1` belongs > 17.6 µM (inactive).
To `O=C(NCc1ccc(F)cc1)C(=O)Nc1cccc(Cl)c1` belongs > 28 µM (inactive); to `COc1ccc(C(=O)N(C)Cc2ccccc2)cc1I`, > 28 µM (inactive).
To `Cc1ccc2nc(NC(=O)C34CC5CC(C3)CC(n3cnc([N+](=O)[O-])n3)(C5)C4)sc2c1` belongs > 28 µM (inactive); to `O=C(O)CN1CCN(Cc2ccc(Cl)cc2)C1=O`, > 28 µM (inactive); to `Cc1nc2ccccc2n1CC(=O)N1CCc2c(nc(N3CCCC3)[nH]c2=O)C1`, > 28 µM (inactive).
Turning to `CCCCNC(=O)/C(=C/c1ccccc1)NC(=O)/C=C/c1ccco1`, the EC50 was > 28 µM (inactive).
To `O=C1N[C@@H](Cc2ccc(Cl)cc2)C(=O)N2CCN(C(=O)c3cc(Cl)cc(Cl)c3)C[C@H]12` belongs > 28 µM (inactive); to `Cc1cc(-n2c(SCC(=O)NCc3ccco3)nc3n[nH]c(C)c3c2=N)ccc1Cl`, > 24.4 µM (inactive); to `O=c1oc2cc(O)ccc2cc1-c1ccc(Cl)cc1`, > 28.8 µM (inactive).
To `O=C(Oc1ccc2cc(Br)ccc2c1)c1ccco1` belongs > 25.9 µM (inactive).
To `COc1ccc(S(=O)(=O)N(C)C)c(Cl)c1Cl` belongs > 28 µM (inactive); to `COc1ccc(CCNc2ccnc(Nc3ccc(N4CCOCC4)cc3)n2)cc1`, “inactive”.
With `CCC[C@@H]1NC(=O)[C@@H]2C[C@H](NCc3cc(C)ccc3F)CN2C1=O`, the EC50 is > 28 µM (inactive).
To `COC(=O)c1ccc(CN2CCN(Cc3ccc(OC)c(C)c3)C(CCO)C2)cc1` (configuration not stated) belongs > 28 µM (inactive).
To `COc1cccc(-c2nnc3n2N=C(c2cccc([N+](=O)[O-])c2)CS3)c1` belongs > 28 µM (inactive).
As for `CC(C)N(CCNc1nc(N2CCC(N3CCOCC3)CC2)nc2c1ncn2C1CCCCC1)C(C)C`, the EC50 is > 29.5 µM (inactive).
To `CCOc1ccc(NS(=O)(=O)c2ccc3c(c2)n(C)c(=O)n3C)cc1` belongs > 28 µM (inactive).
As for `Cn1c(/C=C/c2ccccc2)nc2ccccc21`, the EC50 is > 37 µM (inactive).
To `O=C1CC(C(=O)N2CCCC(c3[nH]ncc3-c3ccccc3)C2)c2ccccc21` (configuration not stated) belongs > 28 µM (inactive); to `CCc1ccc2c(c1)/C(=C/C(=O)c1cccs1)C(=O)N2`, > 28 µM (inactive); to `Cc1cccc(C)c1-n1c(=S)sc2c(=O)n(-c3cccc(Cl)c3)c(SCC#N)nc21`, > 21.8 µM (inactive).
To `Cc1sc2ncnc(N3CCN(c4ccccn4)CC3)c2c1C` belongs > 32.6 µM (inactive); to `COc1ccc(-c2ccc(C(=O)Nc3ccccc3)s2)cn1`, > 28 µM (inactive).
To `CCCCCCCC(=O)N/N=C/c1ccccc1OC` belongs > 28 µM (inactive); to `COc1ccccc1N=C1SC(CC(=O)Nc2cccc([N+](=O)[O-])c2)C(=O)N1C` (configuration not stated), > 28 µM (inactive).
For `COc1cccc(-c2ccc(SCC(=O)Nc3cc(C)on3)nn2)c1`, the EC50 is > 28.3 µM (inactive).
To `Cn1c(=O)c(=O)n(C)c2cc(S(=O)(=O)N3CCN(C(=O)c4ccco4)CC3)ccc21` belongs > 28 µM (inactive).
For `C=CCN1C(=O)CC(C(=O)OC)C12CCN(C1CCN(C(=O)OCC)CC1)CC2` (configuration not stated), the EC50 is > 28 µM (inactive).
To `COc1ccc(-c2ccc(C(=O)NCCc3ccc(O)cc3)s2)cc1` belongs > 27.7 µM (inactive).
To `CCC(Sc1nc(NC2CCCCC2)c2ccccc2n1)C(=O)Nc1ccc2c(c1)OCO2` (configuration not stated) belongs > 20.6 µM (inactive); to `O=C(Nc1cc(C(F)(F)F)ccc1F)C1CCCC1`, > 28 µM (inactive).
